Results from PMC6165432 (International Journal of Molecular Sciences, 2018).
Read-outs that look alike come from different tables or passages of the source. Values belong to the compound of their own block, whether it stands above or below them.

Legend:
human AhR (hAhR) = target: T1, human AhR (hAhR) (Homo sapiens, UniProt P35869); experiment: AhR-responsive luciferase reporter gene assay in stably transfected human HG2L6.1c1 hepatoma cells; settings: for maximal level of reporter gene induction: relative to TCDD
T1 sequence (P35869 11-848): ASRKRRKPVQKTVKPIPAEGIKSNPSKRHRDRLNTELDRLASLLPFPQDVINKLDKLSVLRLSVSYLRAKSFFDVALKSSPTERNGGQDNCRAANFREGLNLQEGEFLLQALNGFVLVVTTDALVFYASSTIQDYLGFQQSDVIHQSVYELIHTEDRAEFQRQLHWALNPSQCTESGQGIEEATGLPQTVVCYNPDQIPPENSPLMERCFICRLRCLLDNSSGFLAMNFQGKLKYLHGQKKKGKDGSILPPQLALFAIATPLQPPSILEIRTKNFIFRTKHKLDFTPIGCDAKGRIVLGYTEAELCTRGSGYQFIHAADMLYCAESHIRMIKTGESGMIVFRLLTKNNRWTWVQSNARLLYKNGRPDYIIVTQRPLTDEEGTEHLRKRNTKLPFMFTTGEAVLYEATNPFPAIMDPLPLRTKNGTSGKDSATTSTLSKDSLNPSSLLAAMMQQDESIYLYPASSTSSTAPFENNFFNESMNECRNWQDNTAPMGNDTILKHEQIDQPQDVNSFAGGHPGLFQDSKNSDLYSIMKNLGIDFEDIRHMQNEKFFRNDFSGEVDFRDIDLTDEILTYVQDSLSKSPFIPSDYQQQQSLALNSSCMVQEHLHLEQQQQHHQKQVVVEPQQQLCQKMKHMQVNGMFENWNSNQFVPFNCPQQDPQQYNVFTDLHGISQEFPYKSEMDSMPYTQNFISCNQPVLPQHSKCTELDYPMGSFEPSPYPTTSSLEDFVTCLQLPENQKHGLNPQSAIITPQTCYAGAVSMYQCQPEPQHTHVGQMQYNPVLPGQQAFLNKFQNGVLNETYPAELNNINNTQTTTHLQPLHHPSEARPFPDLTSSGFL
Experimental: (§1) AhR-dependent gene transcription was determined in (A) human HG2L6.1c.1 and (B) mouse H1L6.1c.3 hepatoma cell lines that contain a stably transfected AhR-responsive luciferase reporter gene. […] Luciferase activity (Relative Light Units (RLUs)) was normalized to the maximal induction observed with TCDD in each cell line. Values represent the mean ± SD of nine independent analyses.
(§2) Recombinant mouse (H1L6.1c3) and human (HG2L6.1c1) hepatoma cells containing a stably integrated AhR-responsive luciferase reporter gene plasmid (pGudLuc6.1) were plated (750,000 cells/well) in 96-well plates and incubated at 37 °C for 24 h prior to chemical treatment. Cells were incubated with DMSO (1% (v/v)) or the indicated concentration of test chemical in DMSO for 4 h, followed by visual inspection of the cells for toxicity, washing of the cells with phosphate-buffered saline (PBS), addition of 50 µL of passive lysis buffer (Promega) and lysis of cells for 20 min at room temperature with shaking [50]. Luciferase activity in each well was measured (integrating luminescence over 10 s with a 10 s delay) in an Orion microplate luminometer (Berthold Detection Systems, Bad Wildbad, Germany) following automatic injection of Promega stabilized luciferase reagent.
(§3) Analysis of statistical significance of differences between experimental values was conducted using Two-Way ANOVA and EC50s and IC50s were calculated using nonlinear regression (three parameter) analysis in GraphPad Prism v.7 (La Jolla, CA, USA).

mouse AhR (mAhR) = target: T2, mouse AhR (mAhR) (Mus musculus, UniProt P30561); experiment: AhR-responsive luciferase reporter gene assay in stably transfected mouse H1L6.1c3 hepatoma cells; assay type: cell-based
T2 sequence (P30561 10-805): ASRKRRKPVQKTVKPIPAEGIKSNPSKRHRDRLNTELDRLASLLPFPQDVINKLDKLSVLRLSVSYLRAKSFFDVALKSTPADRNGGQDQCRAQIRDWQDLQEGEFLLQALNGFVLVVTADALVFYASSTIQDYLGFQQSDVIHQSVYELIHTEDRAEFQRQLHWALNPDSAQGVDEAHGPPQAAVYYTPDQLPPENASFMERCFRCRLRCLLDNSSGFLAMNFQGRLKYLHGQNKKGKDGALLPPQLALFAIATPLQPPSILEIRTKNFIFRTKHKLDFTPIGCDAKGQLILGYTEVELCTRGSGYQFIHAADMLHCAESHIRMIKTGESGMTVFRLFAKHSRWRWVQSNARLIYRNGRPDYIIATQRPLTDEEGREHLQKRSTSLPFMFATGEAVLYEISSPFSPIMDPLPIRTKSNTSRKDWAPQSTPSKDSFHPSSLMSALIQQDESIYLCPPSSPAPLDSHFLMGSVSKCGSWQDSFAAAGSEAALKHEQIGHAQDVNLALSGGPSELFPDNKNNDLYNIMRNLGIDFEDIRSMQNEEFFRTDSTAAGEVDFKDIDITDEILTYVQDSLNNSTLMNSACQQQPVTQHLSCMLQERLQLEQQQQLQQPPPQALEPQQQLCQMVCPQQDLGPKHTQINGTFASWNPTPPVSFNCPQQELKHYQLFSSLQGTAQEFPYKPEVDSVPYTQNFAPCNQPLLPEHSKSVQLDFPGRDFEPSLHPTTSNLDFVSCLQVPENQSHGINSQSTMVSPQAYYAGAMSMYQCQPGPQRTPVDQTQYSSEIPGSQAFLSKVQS
Experimental: as §1, §2, §3

AhR [1] = settings: human hepatoma cells ref 23; cited from earlier work
mutant A349T mAhR = tested on: T3, mutant A349T mAhR; experiment: Transient transfection luciferase reporter assay in COS-1 cells, A349T mAhR; assay type: cell-based, mouse; settings: COS-1 cells cotransfected with A349T mAhR; TCDD 10 nM, IR 1 µM, 18–20 h
T3 construct: contains a full-length mAhR cDNA in which the mouse PASB LBD was replaced; expressed in transfected cells; host or cells: COS-1
Experimental: (§4) Cells were lysed, and lysates were analyzed for firefly luciferase activity. […] Luciferase activity (relative light units; RLU) was measured and corrected for background (DMSO) and normalized to mAhR TCDD levels. Values represent the mean ± SD of nine individual replicate analyses.
(§5) COS-1 cells were plated at a density of 75,000 cells/well and allowed to attach overnight in a 24-well plate. Cells were transiently transfected (per well) with the following amounts per well: 2 µL Lipofectamine 2000 (Invitrogen, Carlsbad, CA, USA), 20 ng wild-type (mβAhR/pcDNA3) or mutant AhR expression plasmids (in pcDNA3.1), 20 ng of mβARNT/pcDNA3 or pcDNA3.1(+) and 200 ng pGudLuc6.1 [17].

hAhR = hAhR (Homo sapiens, UniProt P35869); settings: COS-1 cells cotransfected with hAhR; TCDD 10 nM, IR 1 µM, 18–20 h
Experimental: as §4, §5

mAhR-hAhRLBD = mAhR-hAhRLBD (Mus musculus; Homo sapiens, UniProt P30561+P35869); settings: COS-1 cells cotransfected with mAhR-hAhRLBD; TCDD 10 nM, IR 1 µM, 18–20 h
Experimental: as §4, §5

AhR [2] = settings: mouse hepatoma cells ref 23; cited from earlier work
[3] = mouse H1L6.1c3 hepatoma cells, 4 h, mean ± SD of nine analyses, read-out: EC50 to stimulate luciferase reporter gene expression, Mouse

Sequence of mAhR-hAhRLBD (P30561 with tags, fused parts or gaps, one chain of several): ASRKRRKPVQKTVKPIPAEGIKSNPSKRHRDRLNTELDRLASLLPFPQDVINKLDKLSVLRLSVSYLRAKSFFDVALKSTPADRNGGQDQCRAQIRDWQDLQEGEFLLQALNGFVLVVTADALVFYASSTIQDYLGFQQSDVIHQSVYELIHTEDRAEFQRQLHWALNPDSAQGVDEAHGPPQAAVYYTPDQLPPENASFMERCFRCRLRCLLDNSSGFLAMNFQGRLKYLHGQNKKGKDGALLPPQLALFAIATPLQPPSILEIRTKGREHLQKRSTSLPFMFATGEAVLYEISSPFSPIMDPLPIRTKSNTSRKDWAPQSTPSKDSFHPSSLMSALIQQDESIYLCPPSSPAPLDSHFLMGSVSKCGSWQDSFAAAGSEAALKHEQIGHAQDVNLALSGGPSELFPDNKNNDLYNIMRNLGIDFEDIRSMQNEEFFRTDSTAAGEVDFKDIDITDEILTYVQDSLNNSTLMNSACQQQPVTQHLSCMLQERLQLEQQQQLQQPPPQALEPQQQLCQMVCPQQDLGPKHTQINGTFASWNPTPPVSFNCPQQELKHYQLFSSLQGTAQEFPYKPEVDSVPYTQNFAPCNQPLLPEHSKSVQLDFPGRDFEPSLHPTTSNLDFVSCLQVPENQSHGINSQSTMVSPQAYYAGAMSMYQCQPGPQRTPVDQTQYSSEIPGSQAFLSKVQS
Sequence of mAhR-hAhRLBD (P53762 2-791 partner, one chain of several): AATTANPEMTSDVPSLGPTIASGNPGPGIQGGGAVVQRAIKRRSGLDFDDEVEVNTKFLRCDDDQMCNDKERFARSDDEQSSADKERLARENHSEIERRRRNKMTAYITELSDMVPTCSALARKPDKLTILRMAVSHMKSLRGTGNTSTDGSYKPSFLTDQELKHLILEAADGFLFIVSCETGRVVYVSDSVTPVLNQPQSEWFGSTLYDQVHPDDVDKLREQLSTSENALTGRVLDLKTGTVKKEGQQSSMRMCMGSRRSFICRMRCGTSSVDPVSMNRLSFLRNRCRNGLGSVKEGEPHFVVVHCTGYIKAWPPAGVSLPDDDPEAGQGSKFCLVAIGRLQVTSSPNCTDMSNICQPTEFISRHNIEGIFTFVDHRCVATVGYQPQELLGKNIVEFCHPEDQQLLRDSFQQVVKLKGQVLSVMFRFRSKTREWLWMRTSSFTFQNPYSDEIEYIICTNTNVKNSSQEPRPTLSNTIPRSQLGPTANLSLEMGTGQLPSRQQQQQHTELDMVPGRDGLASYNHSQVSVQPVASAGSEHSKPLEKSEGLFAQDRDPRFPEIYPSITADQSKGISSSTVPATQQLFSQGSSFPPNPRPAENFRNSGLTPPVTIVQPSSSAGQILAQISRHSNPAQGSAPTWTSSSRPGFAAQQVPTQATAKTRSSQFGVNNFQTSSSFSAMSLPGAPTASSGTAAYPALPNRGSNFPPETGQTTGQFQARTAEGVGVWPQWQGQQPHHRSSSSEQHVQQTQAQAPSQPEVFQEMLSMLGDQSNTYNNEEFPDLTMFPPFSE

SMILES: Cc1ccc2cc3c(ccc4ccccc43)c3c2c1CC3 [3-MC, 3-Methylcholanthrene]
EC50 (human AhR (hAhR)): 14.6 ± 3.51 nM
maximal level of reporter gene induction (human AhR (hAhR); human HG2L6.1c1 cells): maximal induction was not observed
EC50 (mouse AhR (mAhR); [3]): 1.49 ± 0.01 nM

SMILES: O=c1cc(-c2ccccc2)oc2ccc3ccccc3c12 [BNF, β-naphthoflavone]
maximal level of reporter gene induction (human AhR (hAhR); human HG2L6.1c1 cells): maximal induction was not observed
EC50 (mouse AhR (mAhR); [3]): 1.84 ± 1.14 nM

EC50 (mouse AhR (mAhR); [3]): 3.71 ± 0.85 nM
SMILES: O=Cc1c2[nH]c3ccccc3c2cc2[nH]c3ccccc3c12 [FICZ, 6-formylindolo[3,2-b]carbazole]

SMILES: O=C1Nc2ccccc2/C1=C1/Nc2ccccc2C1=O [IR, indirubin]
more potent than TCDD, reporter gene induction (human AhR (hAhR); human HG2L6.1c1 cells): ~ 7 fold
greater potency than TCDD as inducer of AhR-dependent gene expression (AhR [1]): 10 fold
EC50 (mouse AhR (mAhR); mouse): 15.6 ± 3.52 nM
induction of luciferase activity, IR versus TCDD (mutant A349T mAhR): significantly more efficacious inducer than TCDD
maximal induction compared with wild-type mAhR (mutant A349T mAhR): significantly increased above that of wild-type mAhR
induction of luciferase activity, IR versus TCDD (hAhR): significantly more efficacious inducer than TCDD
induction of luciferase activity, IR versus TCDD (mAhR-hAhRLBD): significantly more efficacious inducer than TCDD
less potent than TCDD as inducer of AhR-dependent gene expression (AhR [2]): ~ 10 fold
